# According to patent publication US20240269085A1, “CO[…] COMPOUNDS AND PRODUCTION THEREOF” (Esolate Ltd, priority 2019, published 2024):
# Tests used:
# Assay type in all cases: physicochemical
# [1] = Visual solubility in simulated stomach conditions (0.155 M HCl with NaCl, 37° C.)
# Procedure: Bioavailability of the cannabinoid ultrafine nanoparticles obtained as described in Example 4 was assessed by visually evaluating the solubility of the fine nanoparticles in simulated stomach conditions. 0.5 g of NaCl was added to a 0.155 M solution of HCl in water to replicate stomach acidic conditions. 10 mg of the fine nanoparticles, 10 mg of the isolates in crystalline form, and 10 mg of the distillates were each placed in vials containing 10 ml of the acidic solution and incubated for 10 hours at 37° C. At the end of the 10-hour period, only minimal solubility of the preparations was observed. Additional 10 ml of the acidic solution were added, and the mixtures were incubated for 10 more hours at 37° C. At the end of the 20-hour period, the cannabinoid nanoparticles dissolved in the acidic solution.
# Solubility in water = experiment: Solubility in water
# [2] = Relative bioavailability test: HPLC-UV of CBD concentration in water; conditions: after 32 hours elapsed time
# Procedure: Relative bioavailability tests of the cannabinoid ultrafine nanoparticles obtained as described in Example 4 (test samples) as compared to cannabinoid isolates in water (control samples) were performed using a high performance liquid chromatography (HPLC) separator equipped with a UV detector to determine the concentration of CBD in each sample. Control samples were prepared by filtering 1 ml of each sample through a 0.45 μm filter into a 2 ml HPLC vial and 1 ml of methanol (MeOH) was added to each sample vial. HPLC mobile phase was comprised of 65% acetonitrile and 35% water. A flow rate of 1 ml per minute led to the elution of CBD after approximately 4.5 minutes.
# A percentage area was measured after 32 hours elapsed time, which represents the amount of CBD in each sample relative to the background signal created by the MeOH in each sample.
structure (smiles),measurement,setting,value
"C=C(C)[C@@H]1CCC(C)=C[C@H]1c1c(O)cc(CCCCC)cc1O [CBD isolate, cannabidiol]",solubility in acidic solution,"[1]; 10 mg in 20 ml, 20 hours at 37° C.",complete insolubility
same,solubility in acid (visual),[1]; acidic solvent resembling stomach conditions,insoluble
same,solubility in water (visual),Solubility in water,insoluble
same,percentage area (amount of CBD relative to MeOH background),[2],0.7706%
